Results: patent US20200397796A1, “METHODS OF TREATMENT OF CANCER COMPRISING CHK1 INHIBITORS” (SIERRA ONCOLOGY, INC., priority 2018, published 2020)

Assays:
Pan02 = test: In vivo efficacy, Pan02 syngeneic mouse model; settings: in combination with a PD1/PD-L1 inhibitor; data not shown
Procedure: A program of in vivo efficacy studies was performed to assess the activity of SRA737 in combination with genotoxic chemotherapy and targeted agents, and as monotherapy.
One of these models also carried a MYCN amplification. A fourth HGSOC PDX model with partial resistance to PARPi was also sensitive to high dose SRA737 monotherapy.

[1] = Parallel artificial membrane permeability assay (PAMPA); type: in vitro ADME
Procedure: The membrane permeability of SRA737 was assessed in the parallel artificial membrane permeability assay (PAMPA) and Caco-2 assays. Permeability in the PAMPA assay was classified as low.

[2] = GLP 28-day repeat oral dose toxicity and toxicokinetics, monkey; type: in vivo; settings: for AUC(0-t) / Cmax / half-life: po, daily dosing for 28 days
Text: Reference source not found.6.

[3] = Phase 1 clinical trial, SRA737 in combination with gemcitabine dose escalation; type: in vivo, human; settings: for AUC(0-t) / Cmax / Tmax / half-life: human, plasma, oral, mean
Procedure: A Phase 1 clinical trial was conducted in ‘all corners,’ i.e. no genetic selection was performed, to establish safety, tolerability and pharmacokinetics for SRA737 administered in combination with gemcitabine (“Dose Escalation Phase”). Cohorts consisting initially of a single subject received escalating doses of SRA737, starting in Cohort 1 with 40 mg/day administered orally on days 2, 3, 9, 10, 16, and 17 of each 28-day cycle. Cohorts also received various doses of gemcitabine, starting in Cohort 1 with 300 mg/m^2/day administered IV over 30 minutes on days 1, 8, and 15 of each 28-day cycle.
FIG. 3 presents a summary of dosing amounts for the cohorts tested. In the Dose Escalation Phase, a total of 55 subjects received SRA737 in 13 dose escalation cohorts at doses of 40 to 600 mg SRA737 combined with LDG doses of 50 to 300 mg/m^2.
At this dose, the Cmin (52 ng/mL) exceeded that determined in preclinical models to be effective.
Additional cohorts are monitored escalating the dose of SRA737 until the maximum tolerated dose (MTD) is identified and to optimize combination dosing with gemcitabine. All enrolled subjects who receive at least 1 dose of SRA737 and provide at least 1 evaluable PK concentration or have evaluable data for each specific PDn assessment are evaluable for PK and PDn, respectively. Serious adverse events (SAEs) are collected starting on the date of informed consent. Radiological assessment are performed within 4 weeks from the first dose of SRA737 (or gemcitabine if the SRA737 dose for PK is omitted) and repeated every 6 weeks in Stage 1. In Stage 2, assessments are performed every 8 weeks and in long-term follow-up every 16 weeks. Assessments are performed more frequently, when clinically indicated. Cardiac assessments (echocardiogram [ECHO] and electrocardiogram [ECG]) are be conducted. Optional triplet tumor biopsies in some cases are collected within 28 days prior to receiving the first SRA737 dose. Within 7 days of the first dose of SRA737 (or gemcitabine if the SRA737 dose for PK is omitted), the following assessments are completed: complete physical examination, clinical disease assessment, SAE and concomitant medication, WHO performance status and local laboratory assessment of blood (for hematology, biochemistry, and pregnancy testing). At the single-dose PK run-in on Day −7 to Day −4 visit, concomitant medication, vital signs (including temperature, blood pressure, and pulse), height, weight, body surface area (BSA), and WHO performance status are collected. Blood samples are obtained predose for hematology, biochemistry, pregnancy testing, troponin I or T, as well as for tumor markers and tumor profiling. Adverse events (AEs) are collected starting at the administration of SRA737. Archival tissue is submitted for tumor profiling. PK samples are collected at up to 10 time points over a 48-hour time period on Day −7 to −4 (first dose of SRA737 for PK). The sponsor in some cases reduces the requirement for PK sampling, including modification or elimination of the Day −7 to Day −4 visit once sufficient data to evaluate the single-dose PK of SRA737 have been collected and analyzed. […]

[4] = in vivo, Monkey Female, 2 mg/kg/day
[5] = in vivo, Monkey Female, 10 mg/kg/day
[6] = in vivo, Monkey Female, 20 mg/kg/day (NOAEL)
[7] = in vivo, Monkey Male, 2 mg/kg/day
[8] = in vivo, Monkey Male, 10 mg/kg/day
[9] = in vivo, Monkey Male, 20 mg/kg/day (NOAEL)

N#Cc1cnc(Nc2cc(NCC3CNCCO3)c(C(F)(F)F)cn2)cn1 (stereo not drawn) [SRA737, 5-[[4-[[morpholin-2-yl]methylamino]-5-(trifluoromethyl)-2-pyridyl]amino]pyrazine-2-carbonitrile]
antitumor activity (Pan02): Significant antitumor activity | permeability in the PAMPA assay [1]: low | AUC(0-t) [2, 4]: 2580 ng·h/mL | Cmax [2, 4]: 519 ng/mL | half-life [2, 4]: 524 min | AUC(0-t) [2, 5]: 12900 ng·h/mL | Cmax [2, 5]: 1870 ng/mL | half-life [2, 5]: 395 min | AUC(0-t) [2, 6]: 24200 ng·h/mL | Cmax [2, 6]: 2320 ng/mL | half-life [2, 6]: 360 min | AUC(0-t) [2, 7]: 3240 ng·h/mL | Cmax [2, 7]: 365 ng/mL | half-life [2, 7]: 404 min | AUC(0-t) [2, 8]: 17900 ng·h/mL | Cmax [2, 8]: 2070 ng/mL | half-life [2, 8]: 500 min | AUC(0-t) [2, 9]: 20700 ng·h/mL | Cmax [2, 9]: 3170 ng/mL | half-life [2, 9]: 410 min | NOAEL at 28 days ([2]; in vivo, monkey, 28-day repeat oral dose, highest dose tested): 20 mg/kg/day | NOAEL ([2]; monkey, 28-day repeat oral dose, highest dose tested): 240 mg/m^2/day | toxicological findings ([2]; pivotal monkey toxicity study): absence of toxicological findings | Cmin ([3]; 150 mg SRA737): 52 ng/mL | dose limiting toxicities (DLTs) ([3]; 40 to 600 mg SRA737 combined with gemcitabine 50 to 300 mg/m^2): No protocol-defined dose limiting toxicities | AUC(0-t) ([3]; 20 mg, Day −7, n = 8-10, read-out: AUC0-12): 145 ng·h/mL | Cmax ([3]; 40 mg, Day 10, n = 4): 117 ng/mL | Tmax ([3]; 40 mg, Day 10, n = 4): 1.8 h | AUC(0-t) ([3]; 40 mg, Day 10, n = 4, read-out: AUC0-12): 543 ng·h/mL | Cmax ([3]; 40 mg, Day −7, n = 6): 106 ng/mL | Tmax ([3]; 40 mg, Day −7, n = 6): 2 h | AUC(0-t) ([3]; 40 mg, Day −7, n = 6, read-out: AUC0-12): 486 ng·h/mL | AUC(0-t) ([3]; 40 mg, Day −7, n = 6, read-out: AUC0-24): 637 ng·h/mL | Cmax ([3]; 80 mg, Day 10, n = 3): 113 ng/mL | Tmax ([3]; 80 mg, Day 10, n = 3): 2 h | AUC(0-t) ([3]; 80 mg, Day 10, n = 3, read-out: AUC0-12): 570 ng·h/mL | Cmax ([3]; 80 mg, Day −7, n = 3): 146 ng/mL | Tmax ([3]; 80 mg, Day −7, n = 3): 2 h | AUC(0-t) ([3]; 80 mg, Day −7, n = 3, read-out: AUC0-12): 641 ng·h/mL | AUC(0-t) ([3]; 80 mg, Day −7, n = 3, read-out: AUC0-24): 825 ng·h/mL | Cmax ([3]; 150 mg, Day 10, n = 3): 331 ng/mL | Tmax ([3]; 150 mg, Day 10, n = 3): 1.5 h | AUC(0-t) ([3]; 150 mg, Day 10, n = 3, read-out: AUC0-12): 1680 ng·h/mL | Cmax ([3]; 150 mg, Day −7, n = 4): 548 ng/mL | Tmax ([3]; 150 mg, Day −7, n = 4): 1.8 h | AUC(0-t) ([3]; 150 mg, Day −7, n = 4, read-out: AUC0-12): 2630 ng·h/mL | AUC(0-t) ([3]; 150 mg, Day −7, n = 4, read-out: AUC0-24): 3550 ng·h/mL | Cmax ([3]; 300 mg, Day 10, n = 7): 1080 ng/mL | Tmax ([3]; 300 mg, Day 10, n = 7): 1.7 h | AUC(0-t) ([3]; 300 mg, Day 10, n = 7, read-out: AUC0-12): 5140 ng·h/mL | Cmax ([3]; 300 mg, Day −7, n = 7): 995 ng/mL | Tmax ([3]; 300 mg, Day −7, n = 7): 2.4 h | AUC(0-t) ([3]; 300 mg, Day −7, n = 7, read-out: AUC0-12): 4530 ng·h/mL | AUC(0-t) ([3]; 300 mg, Day −7, n = 7, read-out: AUC0-24): 5910 ng·h/mL | Cmax ([3]; 500 mg, Day 10, n = 19-22): 1720 ng/mL | Tmax ([3]; 500 mg, Day 10, n = 19-22): 2.4 h | AUC(0-t) ([3]; 500 mg, Day 10, n = 19-22, read-out: AUC0-12): 10200 ng·h/mL | Cmax ([3]; 500 mg, Day −7, n = 29): 1430 ng/mL | Tmax ([3]; 500 mg, Day −7, n = 29): 2.4 h | AUC(0-t) ([3]; 500 mg, Day −7, n = 29, read-out: AUC0-12): 8320 ng·h/mL | AUC(0-t) ([3]; 500 mg, Day −7, n = 29, read-out: AUC0-24): 11400 ng·h/mL | Cmax ([3]; 600 mg, Day 10, n = 4): 2110 ng/mL | Tmax ([3]; 600 mg, Day 10, n = 4): 2.5 h | AUC(0-t) ([3]; 600 mg, Day 10, n = 4, read-out: AUC0-12): 11900 ng·h/mL | Cmax ([3]; 600 mg, Day −7, n = 4): 2210 ng/mL | Tmax ([3]; 600 mg, Day −7, n = 4): 1.8 h | AUC(0-t) ([3]; 600 mg, Day −7, n = 4, read-out: AUC0-12): 11800 ng·h/mL | AUC(0-t) ([3]; 600 mg, Day −7, n = 4, read-out: AUC0-24): 15100 ng·h/mL | half-life ([3]; 20 mg, Day −7, n = 8-10): 245 min | half-life ([3]; 40 mg, Day −7, n = 6): 696 min | half-life ([3]; 80 mg, Day −7, n = 3): 678 min | half-life ([3]; 150 mg, Day −7, n = 4): 762 min | half-life ([3]; 300 mg, Day −7, n = 7): 708 min | half-life ([3]; 500 mg, Day −7, n = 29): 708 min | half-life ([3]; 600 mg, Day −7, n = 4): 666 min
